In PubChem BioAssay AID1259408 (Genetic Toxicology Data Bank (GENE-TOX), 2018):
Calls of active or inactive are those of the source. No rule for the calls is given here.

Tested on: GENE-TOX genotoxicity assays, various organisms and cells
Assay: GENE-TOX mutagenicity studies
[1] = Species/Cell Type: Salmonella typhimurium (one or more of the five standard strains: TA98, TA100, TA1535, TA1537, and TA1538), Assay Type: Histidine reverse gene mutation, Ames assay, Assay Code: SAL+*, Activation: With metabolic activation, Evaluation Type: Evaluation A (Pre-1980)
[2] = Species/Cell Type: Human, Assay Type: Sister-chromatid exchange (SCE) in vitro, Assay Code: SC1+D, Dose Response: With dose response, Evaluation Type: Evaluation B (Post-1980)
[3] = Species/Cell Type: Neurospora crassa, Assay Type: Aneuploidy, chromosome aberrations, Assay Code: NEN-, Evaluation Type: Evaluation A (Pre-1980)

CC(C)=O
mutagenic call (Species/Cell Type: Arabidopsis species, Assay Type: Gene mutation, Assay Code: ARM-, Evaluation Type: Evaluation A (Pre-1980)): inactive; negative | mutagenic call (Species/Cell Type: Fischer rat embryo (RLV/1706) cells, Assay Type: Cell transformation, viral enhanced, Assay Code: CTR-, Evaluation Type: Evaluation A (Pre-1980)): inactive; negative | mutagenic call (Species/Cell Type: Human, Assay Type: Sister-chromatid exchange (SCE) in vitro, Assay Code: SC1T, Evaluation Type: Evaluation B (Post-1980)): no conclusion | mutagenic call (Species/Cell Type: Mammalian polychromatic erythrocytes, Assay Type: Micronucleus test, chromosome aberrations, Assay Code: MNT-, Evaluation Type: Evaluation B (Post-1980)): inactive; negative | mutagenic call (Species/Cell Type: Mouse embryo (AKR/ME) cells, Assay Type: Cell transformation, Assay Code: CTK-, Evaluation Type: Evaluation A (Pre-1980)): inactive; negative | mutagenic call (Species/Cell Type: Nonhuman, Assay Type: Chromosome aberrations in vitro, Assay Code: CY&-, Evaluation Type: Evaluation A (Pre-1980)): inactive; negative | mutagenic call (Species/Cell Type: Nonhuman, Assay Type: Sister-chromatid exchange (SCE) in vitro, Assay Code: SC2-, Evaluation Type: Evaluation A (Pre-1980)): inactive; negative | mutagenic call (Species/Cell Type: Salmonella typhimurium (one or more of the five standard strains: TA98, TA100, TA1535, TA1537, and TA1538), Assay Type: Histidine reverse gene mutation, Ames assay, Assay Code: SAL-, Evaluation Type: Evaluation A (Pre-1980)): inactive; negative | mutagenic call (Species/Cell Type: Syrian hamster embryo (SHE) cells, Assay Type: Cell transformation, clonal assay, Assay Code: CTC-, Evaluation Type: Evaluation A (Pre-1980)): inactive; negative

CCCCOc1ccc2nc3cc(Cl)ccc3c(NCCCN(CC)CCCl)c2n1
mutagenic call (Species/Cell Type: Chinese hamster ovary (CHO) cells, Assay Type: Forward gene mutation at the HPRT locus, Assay Code: CHO+, Evaluation Type: Evaluation B (Post-1980)): active; positive

N#CN(CCCC(NC(=O)c1ccccc1)C(N)=O)N=O (configuration not stated)
mutagenic call (Species/Cell Type: Escherichia coli polA (W3119 vs P3478), Assay Type: Rec-assay, DNA effects (bacterial DNA repair), Assay Code: RE1+, Evaluation Type: Evaluation A (Pre-1980)): active; positive

Cc1ccc2c(C)c3ccc4ccccc4c3nc2c1
mutagenic call [1]: active; positive

O=c1[nH]c(=O)n([C@H]2C[C@H](O)[C@@H](CO)O2)cc1CO
mutagenic call (Species/Cell Type: Human lymphocytes, Assay Type: Sister-chromatid exchange (SCE) in vitro, Assay Code: SCL+D, Dose Response: With dose response, Evaluation Type: Evaluation B (Post-1980)): active; positive | mutagenic call [2]: active; positive

O=[N+]([O-])c1ccc(N=Nc2c(O)ccc3ccccc23)c(Cl)c1
mutagenic call [1]: active; positive

Clc1cc(Cl)c(OCC#CI)cc1Cl
mutagenic call [3]: inactive; negative

c1ccc2c(c1)cnc1ccccc12
mutagenic call [1]: active; positive

CCOP(=O)(OCC)Oc1nc(Cl)c(Cl)cc1Cl
mutagenic call (Species/Cell Type: Nonhuman, Assay Type: Sister-chromatid exchange (SCE) in vitro, Assay Code: SC2T, Evaluation Type: Evaluation B (Post-1980)): no conclusion | mutagenic call (Species/Cell Type: Nonhuman, Assay Type: Sister-chromatid exchange (SCE) in vivo, Assay Code: SC3-, Evaluation Type: Evaluation B (Post-1980)): inactive; negative

O=[N+]([O-])c1ccc(-c2nc(N3CCOCC3)c3ccccc3n2)s1
mutagenic call (Species/Cell Type: Salmonella typhimurium (one or more of the five standard strains: TA98, TA100, TA1535, TA1537, and TA1538), Assay Type: Histidine reverse gene mutation, Ames assay, Assay Code: SAL+, Evaluation Type: Evaluation A (Pre-1980)): active; positive

CNc1ccc(O)cc1
mutagenic call (Species/Cell Type: Allium cepa, Assay Type: Chromosome aberrations, Assay Code: ALCT, Evaluation Type: Evaluation A (Pre-1980)): no conclusion | mutagenic call [3]: inactive; negative

COc1cc([N+](=O)[O-])ccc1N=Nc1ccccc1
mutagenic call (Species/Cell Type: Salmonella typhimurium (one or more of the five standard strains: TA98, TA100, TA1535, TA1537, and TA1538), Assay Type: Histidine reverse gene mutation, Ames assay, Assay Code: SALT, Evaluation Type: Evaluation A (Pre-1980)): no conclusion

CCNc1nc(Cl)nc(NCC)n1 (tested in a mixture with another compound)
mutagenic call (Species/Cell Type: Saccharomyces cerevisiae, Assay Type: Mitotic recombination or gene conversion, Assay Code: YEC-, Evaluation Type: Evaluation A (Pre-1980)): inactive; negative

CC(=O)Oc1c2ccccc2c2ccc3cccc4ccc1c2c43
mutagenic call (Species/Cell Type: Syrian hamster embryo (SA7/SHE) cells, Assay Type: Cell transformation, viral enhanced, Assay Code: CT7+, Evaluation Type: Evaluation A (Pre-1980)): active; positive

O=C(O)c1ccc([N+](=O)[O-])cc1
mutagenic call (Species/Cell Type: Salmonella typhimurium, Assay Type: Forward and reverse gene mutation, host-mediated assay, Assay Code: HMA-, Evaluation Type: Evaluation A (Pre-1980)): inactive; negative

CC(=O)Nc1ccc2c(c1)Cc1ccccc1-2
mutagenic call (Species/Cell Type: Chinese hamster lung (V79) cells, Assay Type: Forward gene mutation at the HPRT or ouabain locus, Assay Code: V79-, Evaluation Type: Evaluation A (Pre-1980)): inactive; negative | mutagenic call (Species/Cell Type: Chinese hamster ovary (CHO) cells, Assay Type: Forward gene mutation at the HPRT locus, Assay Code: CHO+*, Activation: With metabolic activation, Evaluation Type: Evaluation B (Post-1980)): active; positive | mutagenic call (Species/Cell Type: Drosophila melanogaster, Assay Type: Sex-linked recessive lethal gene mutation, Assay Code: SRLT, Evaluation Type: Evaluation A (Pre-1980)): no conclusion | mutagenic call (Species/Cell Type: Escherichia coli polA (W3110 vs P3478), Assay Type: Rec-assay, DNA effects (bacterial DNA repair), Assay Code: RE2+, Evaluation Type: Evaluation A (Pre-1980)): active; positive | mutagenic call (Species/Cell Type: Escherichia coli polA (W3119 vs P3478), Assay Type: Rec-assay, DNA effects (bacterial DNA repair), Assay Code: RE1-, Evaluation Type: Evaluation A (Pre-1980)): inactive; negative | mutagenic call (Species/Cell Type: Fischer rat embryo (RLV/1706) cells, Assay Type: Cell transformation, viral enhanced, Assay Code: CTRT, Evaluation Type: Evaluation A (Pre-1980)): no conclusion | mutagenic call (Species/Cell Type: Human diploid fibroblasts, Assay Type: Unscheduled DNA synthesis (UDS) in vitro, DNA effects, Assay Code: UDHT, Evaluation Type: Evaluation A (Pre-1980)): no conclusion | mutagenic call (Species/Cell Type: Human lymphocytes, Assay Type: Sister-chromatid exchange (SCE) in vitro, Assay Code: SCL-, Evaluation Type: Evaluation A (Pre-1980)): inactive; negative | mutagenic call [2]: active; positive | mutagenic call (Species/Cell Type: Human, Assay Type: Sister-chromatid exchange (SCE) in vitro, Assay Code: SC1-, Evaluation Type: Evaluation A (Pre-1980)): inactive; negative | mutagenic call (Species/Cell Type: Mammalian polychromatic erythrocytes, Assay Type: Micronucleus test, chromosome aberrations, Assay Code: MNT+, Evaluation Type: Evaluation A (Pre-1980)): active; positive | mutagenic call (Species/Cell Type: Mouse (BALB/c-3T3) cells, Assay Type: Cell transformation, Assay Code: CTB+D, Dose Response: With dose response, Evaluation Type: Evaluation A (Pre-1980)): active; positive | mutagenic call (Species/Cell Type: Mouse lymphoma (L5178Y) cells, Assay Type: Forward gene mutation at the thymidine kinase (TK) locus, chromosome aberrations, Assay Code: L51+*, Activation: With metabolic activation, Evaluation Type: Evaluation A (Pre-1980)): active; positive | mutagenic call (Species/Cell Type: Mouse, Sex: Male, Assay Type: Sperm morphology, Assay Code: SPI-, Evaluation Type: Evaluation A (Pre-1980)): inactive; negative | call (Species/Cell Type: Nonhuman, Assay Type: In vivo carcinogenicity studies, Assay Code: CCG+, Evaluation Type: Evaluation A (Pre-1980)): active; positive | mutagenic call (Species/Cell Type: Nonhuman, Assay Type: Sister-chromatid exchange (SCE) in vitro, Assay Code: SC2+, Evaluation Type: Evaluation A (Pre-1980)): active; positive | mutagenic call (Species/Cell Type: Nonhuman, Assay Type: Sister-chromatid exchange (SCE) in vivo, Assay Code: SC3+D, Dose Response: With dose response, Evaluation Type: Evaluation B (Post-1980)): active; positive | mutagenic call (Species/Cell Type: Nonhuman, Assay Type: Sister-chromatid exchange (SCE) in vivo, Assay Code: SC3T, Evaluation Type: Evaluation A (Pre-1980)): no conclusion | mutagenic call (Species/Cell Type: Rat primary hepatocytes, Assay Type: Unscheduled DNA synthesis (UDS) in vitro, DNA effects, Assay Code: UDP+, Evaluation Type: Evaluation A (Pre-1980)): active; positive | mutagenic call (Species/Cell Type: Saccharomyces cerevisiae, Assay Type: Mitotic recombination or gene conversion, Assay Code: YEC-*, Activation: With metabolic activation, Evaluation Type: Evaluation A (Pre-1980)): inactive; negative | mutagenic call (Species/Cell Type: Saccharomyces cerevisiae, Assay Type: Mitotic recombination or gene conversion, Assay Code: YEH-*, Activation: With metabolic activation, Evaluation Type: Evaluation A (Pre-1980)): inactive; negative | mutagenic call [1]: active; positive | mutagenic call (Species/Cell Type: Salmonella typhimurium, Assay Type: Forward and reverse gene mutation, body fluid assay, Assay Code: BFU+, Evaluation Type: Evaluation A (Pre-1980)): active; positive | mutagenic call (Species/Cell Type: Salmonella typhimurium, Assay Type: Forward and reverse gene mutation, host-mediated assay, Assay Code: HMA+, Evaluation Type: Evaluation A (Pre-1980)): active; positive | mutagenic call (Species/Cell Type: Syrian hamster embryo (SA7/SHE) cells, Assay Type: Cell transformation, viral enhanced, Assay Code: CT7-, Evaluation Type: Evaluation A (Pre-1980)): inactive; negative | mutagenic call (Species/Cell Type: Syrian hamster embryo (SHE) cells, Assay Type: Cell transformation, clonal assay, Assay Code: CTC+D*, Activation: With metabolic activation, Dose Response: With dose response, Evaluation Type: Evaluation A (Pre-1980)): active; positive
